Measured values taken from US10251395B2, “Substituted furano-/thienocycloalkylamino-2-pyrimidine derivatives and use thereof for controlling undesired plant growth” (Bayer CropScience Aktiengesellschaft, priority 2015, dated 2019).

Columns and labels:
Format in all cases: in vivo
Veronica persica [1] = assay: Post-emergence herbicidal effect; conditions: assessed visually after about 3 weeks vs untreated controls
How it was run: (§1)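 Seedlings at the one-leaf stage, about 2 to 3 weeks old, are sprayed on their foliage with compound suspended or emulsified in water containing 0.2% wetting agent. After roughly 3 weeks in the greenhouse, injury is estimated visually on a 0 to 100% scale.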

Amaranthus retroflexus [2] = assay: Post-emergence herbicidal effect; conditions: assessed visually after about 3 weeks vs untreated controls
How it was run: as §1

Stellaria media [3] = assay: Post-emergence herbicidal effect; conditions: assessed visually after about 3 weeks vs untreated controls
How it was run: as §1

Setaria viridis [4] = assay: Post-emergence herbicidal effect; conditions: assessed visually after about 3 weeks vs untreated controls
How it was run: as §1

Abutilon theophrasti [5] = assay: Post-emergence herbicidal effect; conditions: assessed visually after about 3 weeks vs untreated controls
How it was run: as §1

Viola tricolor [6] = assay: Post-emergence herbicidal effect; conditions: assessed visually after about 3 weeks vs untreated controls
How it was run: as §1

Ipomoea purpurea = assay: Pre-emergence herbicidal effect; conditions: scored visually after 3 weeks
How it was run: (§2)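 Scoring: visual, 3 weeks, % vs untreated (100% = died). Treatment: WP or EC in water, 0.2% wetting agent, sprayed on covering soil after sowing in sandy loam.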

Veronica persica [7] = assay: Pre-emergence herbicidal effect; conditions: scored visually after 3 weeks
How it was run: as §2

Stellaria media [8] = assay: Pre-emergence herbicidal effect; conditions: scored visually after 3 weeks
How it was run: as §2

Cyperus esculentus = assay: Pre-emergence herbicidal effect; conditions: scored visually after 3 weeks
How it was run: as §2

Matricaria inodora [9] = assay: Pre-emergence herbicidal effect; conditions: scored visually after 3 weeks
How it was run: as §2

Viola tricolor [10] = assay: Pre-emergence herbicidal effect; conditions: scored visually after 3 weeks
How it was run: as §2

Matricaria inodora [11] = assay: Post-emergence herbicidal effect; conditions: 320 g/ha, assessed visually after about 3 weeks vs untreated controls
How it was run: as §1

Echinochloa crus-galli = assay: Pre-emergence herbicidal effect; conditions: Dosage 320 g/ha, scored visually after 3 weeks
How it was run: as §2

Amaranthus retroflexus [12] = assay: Pre-emergence herbicidal effect; conditions: scored visually after 3 weeks
How it was run: as §2

Alopecurus myosuroides = assay: Pre-emergence herbicidal effect; conditions: scored visually after 3 weeks
How it was run: as §2

Polygonum convolvulus = assay: Pre-emergence herbicidal effect; conditions: scored visually after 3 weeks
How it was run: as §2

Setaria viridis [13] = assay: Pre-emergence herbicidal effect; conditions: scored visually after 3 weeks
How it was run: as §2

Lolium multiflorum = assay: Pre-emergence herbicidal effect; conditions: Dosage 320 g/ha, scored visually after 3 weeks
How it was run: as §2

Abutilon theophrasti [14] = assay: Pre-emergence herbicidal effect; conditions: Dosage 320 g/ha, scored visually after 3 weeks
How it was run: as §2

Row | Structure (SMILES) | post-emergence efficacy VERPE (Veronica persica [1]; 320 g/ha) [%] | post-emergence efficacy AMARE (Amaranthus retroflexus [2]; 320 g/ha) [%] | post-emergence efficacy STEME (Stellaria media [3]; 320 g/ha) [%] | post-emergence efficacy SETVI (Setaria viridis [4]; 320 g/ha) [%] | post-emergence efficacy ABUTH (Abutilon theophrasti [5]; 80 g/ha) [%] | post-emergence efficacy ABUTH (Abutilon theophrasti [5]; 320 g/ha) [%] | post-emergence efficacy VIOTR (Viola tricolor [6]; 80 g/ha) [%] | post-emergence efficacy VIOTR (Viola tricolor [6]; 320 g/ha) [%] | PHBPU pre-emergence efficacy (herbicidal activity) (Ipomoea purpurea; Dosage 80 g/ha) [%] | PHBPU pre-emergence efficacy (herbicidal activity) (Ipomoea purpurea; Dosage 320 g/ha) [%] | VERPE pre-emergence efficacy (herbicidal activity) (Veronica persica [7]; Dosage 80 g/ha) [%] | VERPE pre-emergence efficacy (herbicidal activity) (Veronica persica [7]; Dosage 320 g/ha) [%] | STEME pre-emergence efficacy (herbicidal activity) (Stellaria media [8]; Dosage 80 g/ha) [%] | STEME pre-emergence efficacy (herbicidal activity) (Stellaria media [8]; Dosage 320 g/ha) [%] | MATIN pre-emergence efficacy (herbicidal activity) (Matricaria inodora [9]; Dosage 80 g/ha) [%] | MATIN pre-emergence efficacy (herbicidal activity) (Matricaria inodora [9]; Dosage 320 g/ha) [%] | VIOTR pre-emergence efficacy (herbicidal activity) (Viola tricolor [10]; Dosage 80 g/ha) [%] | VIOTR pre-emergence efficacy (herbicidal activity) (Viola tricolor [10]; Dosage 320 g/ha) [%] | ECHCG pre-emergence efficacy (herbicidal activity) (Echinochloa crus-galli) [%] | AMARE pre-emergence efficacy (herbicidal activity) (Amaranthus retroflexus [12]; Dosage 320 g/ha) [%] | further results
1 | Cc1cc2c(s1)CCCC2Nc1nc(N)c(S(C)(=O)=O)c(C(F)F)n1 (racemic) [compound 287] | 100 | 100 | 100 | 80 | 80 | 80 | 100 | 100 | 90 | 100 | 100 | 100 | 90 | 100 | 100 | 100 | 90 | 100 | – | – | post-emergence efficacy VERPE (Veronica persica [1]; 80 g/ha): 80%; post-emergence efficacy AMARE (Amaranthus retroflexus [2]; 80 g/ha): 90%; post-emergence efficacy STEME (Stellaria media [3]; 80 g/ha): 80%; CYPES pre-emergence efficacy (herbicidal activity) (Cyperus esculentus; Dosage 80 g/ha): 80%; CYPES pre-emergence efficacy (herbicidal activity) (Cyperus esculentus; Dosage 320 g/ha): 100%
2 | C/C(=N/OCc1ccccc1)c1cnc(NC2CCCc3sc(C)cc32)nc1N (racemic) [compound 291] | 60 | 80 | – | 80 | 80 | 90 | 80 | 80 | – | 100 | 100 | 100 | 100 | 100 | 100 | 100 | 90 | 100 | 80 | 100 | post-emergence efficacy SETVI (Setaria viridis [4]; 80 g/ha): 60%; post-emergence efficacy MATIN (Matricaria inodora [11]): 80%; ALOMY pre-emergence efficacy (herbicidal activity) (Alopecurus myosuroides; Dosage 80 g/ha): 60%; ALOMY pre-emergence efficacy (herbicidal activity) (Alopecurus myosuroides; Dosage 320 g/ha): 90%; POLCO pre-emergence efficacy (herbicidal activity) (Polygonum convolvulus; Dosage 320 g/ha): 70%; SETVI pre-emergence efficacy (herbicidal activity) (Setaria viridis [13]; Dosage 80 g/ha): 90%; SETVI pre-emergence efficacy (herbicidal activity) (Setaria viridis [13]; Dosage 320 g/ha): 100%; LOLMU pre-emergence efficacy (herbicidal activity) (Lolium multiflorum): 60%
3 | Cc1cc2c(s1)CCCC2Nc1nc(N)c(-c2cccc(F)c2)c(C(F)F)n1 (racemic) [compound 302] | – | – | 80 | – | – | 60 | 90 | 90 | 60 | 80 | – | – | 100 | 100 | 90 | 100 | – | – | 100 | 100 | AMARE pre-emergence efficacy (herbicidal activity) (Amaranthus retroflexus [12]; Dosage 80 g/ha): 100%; ALOMY pre-emergence efficacy (herbicidal activity) (Alopecurus myosuroides; Dosage 320 g/ha): 70%; POLCO pre-emergence efficacy (herbicidal activity) (Polygonum convolvulus; Dosage 80 g/ha): 70%; POLCO pre-emergence efficacy (herbicidal activity) (Polygonum convolvulus; Dosage 320 g/ha): 100%; SETVI pre-emergence efficacy (herbicidal activity) (Setaria viridis [13]; Dosage 80 g/ha): 70%; SETVI pre-emergence efficacy (herbicidal activity) (Setaria viridis [13]; Dosage 320 g/ha): 100%; ABUTH pre-emergence efficacy (herbicidal activity) (Abutilon theophrasti [14]): 80%
